In patent US20150352127A1, “INHALATION PARTICLES COMPRISING A COMBINATION OF AN ANTICHOLINERGIC, A CORTICOSTEROID AND A BETA-ADRENERGIC” (CHIESI FARMACEUTICI S.P.A., priority 2014, published 2015):
Counter-ions that a name gives are not always drawn.

How the values were obtained:
Format in all cases: physicochemical
[1] = Aerosol performances by Next Generation Impactor (NGI) from NEXThaler; settings: formulation of Example 3, NEXThaler, 60 L/min; mean±S.D., n=6
Procedure: Aerosol performances were determined using the Next Generation Impactor (NGI) with a USP induction port and pre-separator containing 15 mL 60:40% v/v MeOH:H2O. […] The aerodynamic particle size distribution was based on 5 actuations from the NEXThaler®, each sampled into 4 liters of air (equivalent to an inhalation time of 4 s). The device was weighed before and after each actuation to determine the shot weight (mg). A minimum of 1 minute was allowed between consecutive actuations to allow static charge to dissipate.
Samples were collected from the NGI using a fixed volume technique. MeOH:H2O (60:40% v/v) was dispensed into the induction port (including mouthpiece); pre-separator; and each stage using an electronic metering dispenser. The induction port (30 mL) and pre-separator (50 mL) were sealed using silicone bungs and shaken by hand for 2 minutes before the samples were collected. The NGI stages (10 mL stages 1-2; 15 mL stage 3-MOC) were rocked using a NGI rocker for 3 minutes. All samples were filtered using a 0.2 μm syringe filter before analysis by UPLC-PDA.

[2] = Drug content of the microparticles by UPLC assay; settings: in spray dried microparticles of Example 1; mean±SD, n=5
[3] = Uniformity of distribution of the active ingredients in the powder formulation (UPLC-PDA); settings: powder formulation of Example 3; for Content: sampled 10 times
Procedure: About 10 mg of the formulation was weighed directly into a 25 mL volumetric flask. It was sampled 10 times. The flask was made up to volume with 60:40% v/v MeOH:H2O and sonicated for 2 minutes. The samples were analyzed for each active ingredient using UPLC-PDA assay.

Structure (SMILES) | DD (delivered dose) [1] | Actual concentration [2] | % of Target [3] | Content [3] | FPF (fine particle fraction) [1] | FPF < 1 μm (extrafine FPF) [1] | FPF < 2 μm (extrafine FPF) [1] | FPM (fine particle mass, ≤5.0 micron) [1] | MMAD [1]
COc1ccc(CC(C)NCC(O)c2ccc(O)c(NC=O)c2)cc1 (stereo not shown) [FF, formoterol fumarate dihydrate] | 5.2 ± 0.1 µg |  |  |  |  |  |  |  | 
CCC(=O)OCC(=O)[C@@]1(OC(=O)CC)[C@@H](C)C[C@H]2[C@@H]3CCC4=CC(=O)C=C[C@]4(C)[C@@]3(Cl)[C@@H](O)C[C@@]21C [BDP, beclometasone dipropionate] | 87.6 ± 2.2 µg | 82.0 ± 0.3 % w/w | 98.75% | 98.75 ± 1.23 μg 10 mg^−1 | 68.5 ± 3.1% | 20.8 ± 0.7% | 38.6 ± 1.2% | 60.0 ± 3.6 µg | 1.9 ± 0.1 μm
C[N+]1(C)CCC(OC(=O)C(O)(c2ccccc2)C2CCCC2)C1 (racemic) [GB, glycopyrronium bromide] | 11.5 ± 0.4 µg | 10.6 ± 0.1 % w/w | 105.37% | 12.64 ± 0.18 μg 10 mg^−1 | 68.5 ± 3.7% | 21.7 ± 0.7% | 39.3 ± 1.6% | 7.9 ± 0.5 µg | 1.9 ± 0.1 μm
